Data published in US20110262359A1, “COMPOSITIONS COMPRISING ENZYME-CLEAVABLE PRODRUGS OF ACTIVE AGENTS AND INHIBITORS THEREOF” (priority 2010, published 2011).

Experiments:
[1] = Oral administration of Compound PC-1 and SBTI trypsin inhibitor to rats (hydromorphone in blood); details: for Maximum concentration (Cmax) of hydromorphone in rat blood: PC-1 20 mg/kg
[2] = Oral administration of Compound PC-1 and SBTI in the presence of ovalbumin to rats (hydromorphone in plasma); assay type: in vivo; details: for Maximum concentration (Cmax) of hydromorphone in rat plasma: PC-1 20 mg/kg
[3] = Oral administration of Compound PC-1 and BBSI inhibitor to rats; assay type: in vivo; details: PC-1 20 mg/kg
[4] = Oral administration of Compound PC-2 and SBTI trypsin inhibitor to rats; assay type: in vivo; details: for Cmax of hydromorphone in rat plasma: PC-2 20 mg/kg
[5] = Oral administration of Compound PC-4 and SBTI trypsin inhibitor to rats; assay type: in vivo; details: for Cmax of HM in rat plasma / Tmax of HM in rat plasma: PC-4 20 mg/kg
[6] = Oral administration of Compound PC-4 and Compound 101 trypsin inhibitor to rats; assay type: in vivo
[7] = target: T1, trypsin from bovine pancreas (Bos taurus, UniProt P00760); experiment: In vitro trypsin conversion of prodrugs to hydromorphone and inhibition by trypsin inhibitor
T1 sequence (P00760 24-246): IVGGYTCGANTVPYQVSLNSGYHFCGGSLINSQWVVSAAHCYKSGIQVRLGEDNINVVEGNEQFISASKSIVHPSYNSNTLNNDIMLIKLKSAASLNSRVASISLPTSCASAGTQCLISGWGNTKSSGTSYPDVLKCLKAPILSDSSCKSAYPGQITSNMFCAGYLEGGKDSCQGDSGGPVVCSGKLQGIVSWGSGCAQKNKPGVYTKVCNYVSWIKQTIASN

[8] = Oral administration of Compound PC-3 and Compound 101 trypsin inhibitor to rats; assay type: in vivo
[9] = In vivo tolerability of Compound KC-3 in rats (IV); details: rat IV
Description: Male naïve Sprague-Dawley rats, 4 per dose, were used in the study. Rats were weighed, and then placed under a heat lamp for 15-20 minutes to dilate the lateral tail veins. […] Before dosing, rats were placed in Broome restrainers and the drug was introduced into one of the tail veins using a syringe and needle. […] Blood samples were collected 5 minutes post-dose via the saphenous vein. The rats were observed up to 24 hours.

[10] = In vitro stability of Compound KC-3 to household chemicals and enzyme preparations; assay type: physicochemical; details: vodka, baking soda, WINDEX, vinegar at RT or 80° C.; GNC Super Digestive, tenderizer, subtilisn at RT; 1 or 24 hr
Description: Samples were incubated as described. Aliquots were removed at 1 hr and 24 hr and stabilized by adding each to a solution of 50% or 100% of 85% phosphoric acid solution to achieve a final pH of less than or equal to pH 4. The stabilized aliquots were then diluted 4- to 6-fold with water, vortex-mixed and applied to HPLC.

[11] = male, Sprague Dawley, rat, in vivo
[12] = target: T1, trypsin from bovine pancreas; experiment: In vitro trypsin conversion of ketone-modified opioid prodrugs to oxycodone or hydrocodone and inhibition by Compound 109; assay type: biochemical; design: trypsin from bovine pancreas; purchased Sigma-Aldrich T8003; host or cells: bovine pancreas (tissue-derived); details: 241 BAEE U trypsin/mL; 0.761 mM prodrug; no inhibitor; 37° C.
[13] = Oral administration of Compound PC-3 and SBTI trypsin inhibitor to rats; assay type: in vivo; details: for Cmax of hydromorphone in rat plasma / Tmax of hydromorphone in rat plasma: PC-3 20 mg/kg
trypsin = target: T2, trypsin (Bos taurus, UniProt P00760); experiment: In vitro IC50 of trypsin inhibitors, modified trypsin assay; assay type: biochemical; details: trypsin inhibition
T2 sequence (P00760 24-246): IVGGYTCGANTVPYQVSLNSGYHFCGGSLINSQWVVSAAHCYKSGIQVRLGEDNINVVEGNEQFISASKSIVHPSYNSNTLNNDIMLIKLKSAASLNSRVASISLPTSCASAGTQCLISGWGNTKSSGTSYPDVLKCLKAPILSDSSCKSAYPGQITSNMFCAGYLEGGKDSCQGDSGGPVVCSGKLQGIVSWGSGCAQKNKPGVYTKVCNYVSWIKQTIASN

[14] = PC-4 20 mg/kg, Compound 101 10 mg/kg
[15] = PC-3 20 mg/kg, Compound 101 10 mg/kg

CC(=O)NC(CCCNC(=N)N)C(=O)NCCN(C)C(=O)Oc1ccc2c3c1OC1C(=O)CCC4C(C2)N(C)CCC314 (centres unmarked) [Compound PC-1, hydromorphone 3-(N-methyl-N-(2-N′-acetylarginylamino)) ethylcarbamate]
Maximum concentration (Cmax) of hydromorphone in rat blood ([1]; SBTI 0 mg/kg): 16.5 ± 5.3 ng/mL | Maximum concentration (Cmax) of hydromorphone in rat blood ([1]; SBTI 10 mg/kg): 8.9 ± 1.8 ng/mL | Maximum concentration (Cmax) of hydromorphone in rat blood ([1]; SBTI 100 mg/kg): 6.0 ± 4.0 ng/mL | Maximum concentration (Cmax) of hydromorphone in rat blood ([1]; SBTI 500 mg/kg, lower limit of quantitation 5 ng/mL): <5 ng/mL | Maximum concentration (Cmax) of hydromorphone in rat blood ([1]; SBTI 1000 mg/kg, lower limit of quantitation 5 ng/mL): <5 ng/mL | Maximum concentration (Cmax) of hydromorphone in rat plasma ([2]; OVA 0 mg/kg, SBTI 0 mg/kg): 13.3 ± 3.7 ng/mL | Maximum concentration (Cmax) of hydromorphone in rat plasma ([2]; OVA 20 mg/kg, SBTI 0 mg/kg): 11.0 ± 5.4 ng/mL | Maximum concentration (Cmax) of hydromorphone in rat plasma ([2]; OVA 100 mg/kg, SBTI 0 mg/kg): 9.7 ± 3.1 ng/mL | Maximum concentration (Cmax) of hydromorphone in rat plasma ([2]; OVA 500 mg/kg, SBTI 0 mg/kg): 11.6 ± 2.5 ng/mL | Maximum concentration (Cmax) of hydromorphone in rat plasma ([2]; OVA 500 mg/kg, SBTI 500 mg/kg): 1.9 ± 0.9 ng/mL | Maximum concentration (Cmax) of hydromorphone in rat plasma ([2]; OVA 1000 mg/kg, SBTI 0 mg/kg): 10.3 ± 3.5 ng/mL | plasma Tmax of hydromorphone ([2]; rat PO, PC-1 20 mg/kg alone): 2.3 h | plasma Tmax of hydromorphone ([2]; rat PO, PC-1 20 mg/kg with 500 mg/kg OVA and 500 mg/kg SBTI): 8.0 h | Maximum concentration (Cmax) of hydromorphone in rat blood ([3]; BBSI 0 mg/kg, n = 4): 16.5 ± 5.3 ng/mL | Maximum concentration (Cmax) of hydromorphone in rat blood ([3]; BBSI 100 mg/kg, n = 3 (3 of the 4 rats)): 10.6 ± 5.9 ng/mL | Maximum concentration (Cmax) of hydromorphone in rat blood ([3]; BBSI 100 mg/kg, n = 4): 18.7 ± 17.0 ng/mL | Cmax of hydromorphone of the rat not included in n = 3 analysis ([3]; BBSI 100 mg/kg, one rat): 43 ng/mL | range of Cmax of hydromorphone of the other rats ([3]; rat PO, BBSI 100 mg/kg, the 3 rats of the n = 3 analysis): 6.8 to 17 ng/mL

CN(CCNC(=O)[C@@H](N)CCCNC(=N)N)C(=O)Oc1ccc2c3c1OC1C(=O)CCC4C(C2)N(C)CCC314 (stereo partly drawn) [Compound PC-2, [2-((S)-2-amino-5-guanidino-pentanoylamino)-ethyl]-methyl-carbamic acid hydromorphyl ester]
Cmax of hydromorphone in rat plasma ([4]; SBTI 0 mg/kg): 14.2 ± 2.6 ng/mL | Cmax of hydromorphone in rat plasma ([4]; SBTI 500 mg/kg): 7.3 ± 3.5 ng/mL

CCN(CCNC(=O)[C@H](CCCNC(=N)N)NC(C)=O)C(=O)Oc1ccc2c3c1OC1C(=O)CCC4C(C2)N(C)CCC314 (some centres unmarked) [Compound PC-4]
Cmax of HM in rat plasma ([5]; SBTI 500 mg/kg): 7.5 ± 2.1 ng/mL | Tmax of HM in rat plasma ([5]; SBTI 500 mg/kg): 6.5 h | Cmax of HM in rat plasma ([5]; no inhibitor, 7 rats): 7.7 ± 2.3 ng/mL | Tmax of HM in rat plasma ([5]; no inhibitor, 7 rats): 2.3 h | Cmax of HM in rat plasma [6, 14]: 4.8 ± 1.4 ng/mL | Tmax of HM in rat plasma [6, 14]: 6.0 h | Rate of HM formation, umols/h/umol trypsin ([7]; no trypsin inhibitor, (n = 1)): 322 umols/h/umol trypsin | Rate of HM formation, umols/h/umol trypsin Average ± sd ([7]; with trypsin inhibitor 3,089 uM Compound 109): 3.27 ± 1.87 umols/h/umol trypsin

CCOC(=O)N1CCN(C(=O)[C@H](CCCNC(=N)N)NS(=O)(=O)c2ccc3ccccc3c2)CC1 [Compound 101, (S)-ethyl 4-(5-guanidino-2-(naphthalene-2-sulfonamido)pentanoyl)piperazine-1-carboxylate]
effect of Compound 101 on release of hydromorphone from Compound PC-3 ([8]; rat PO, PC-3 20 mg/kg with Compound 101 10 mg/kg): attenuates Compound PC-3's ability to release hydromorphone, both with respect to suppressing Cmax and delaying Tmax | effect of Compound 101 on release of hydromorphone from Compound PC-4 ([6]; rat PO, PC-4 20 mg/kg with Compound 101 10 mg/kg): attenuates Compound PC-4's ability to release hydromorphone, both with respect to suppressing Cmax and delaying Tmax

COc1ccc2c3c1O[C@H]1C(OC(=O)N(C)CCNC(=O)[C@H](CCCNC(=N)N)NC(=O)CC(=O)O)=CC[C@@]4(O)[C@@H](C2)N(C)CC[C@]314 [Compound KC-3, N-{(S)-4-guanidino-1-[2-(methyl-[(5R,9R,13S,14S)-4,5a-epoxy-6,7-didehydro-14-hydroxy-3-methoxy-17-methylmorphinan-6-oxy]carbonyl-amino)-ethylcarbamoyl]-butyl}-malonamic acid]
dose tolerated by rats [9]: 97 µmol/kg | time to recover to normal activity ([9]; KC-3 97 μmol/kg): ≤ 2 min | conversion of Compound KC-3 to oxycodone on exposure to household chemicals and enzyme preparations [10]: less than 10% | Compound conc. in CSF [11]: 34.1 ng/mL | Compound conc. in Plasma, ng/mL [11]: 59,225 ng/mL | Plasma/CSF partitioning coefficient [11]: 1,737 | Rate of oxycodone formation, umol/h/BAEE U Average ± sd [12]: 0.0684 ± 0.0009 umol/h/BAEE U

CC(=O)N[C@@H](CCCCN)C(=O)NCCN(C)C(=O)Oc1ccc2c3c1OC1C(=O)CCC4C(C2)N(C)CCC314 (stereo partly drawn) [Compound PC-3, (S)-2-Acetylamino-6-amino-hexanoic acid (2-methylamino-ethyl)-amide hydromorphone ester]
Cmax of hydromorphone in rat plasma ([13]; SBTI 500 mg/kg): 2.3 ± 1.7 ng/mL | Tmax of hydromorphone in rat plasma ([13]; SBTI 500 mg/kg): 7.3 h | Cmax of hydromorphone in rat plasma ([13]; no inhibitor): 9.0 ± 3.1 ng/mL | Tmax of hydromorphone in rat plasma ([13]; no inhibitor): 2.3 h | Cmax of HM in rat plasma [8, 15]: 3.8 ± 2.9 ng/mL | Tmax of HM in rat plasma [8, 15]: 3.5 h

B1: SBTI: trypsin inhibitor from Glycine max (soybean) (Catalog No. 93620, ˜10,000 units per mg, Sigma-Aldrich) (protein, UniProt P01070 25-205, looked up)
Trypsin inhibitor A: DFVLDNEGNPLENGGTYYILSDITAFGGIRAAPTGNERCPLTVVQSRNELDKGIGTIISSPYRIRFIAEGHPLSLKFDSFAVIMLCVGIPTEWSVVEDLPEGPAVKIGENKDAMDGWFRLERVSDDEFNNYKLVFCPQQAEDDKCGDIGISIDHDDGTRRLVVSKNKPLVVQFQKLDKESL
effect of SBTI on release of hydromorphone from Compound PC-1 ([1]; rat PO, PC-1 20 mg/kg with SBTI 10 to 1000 mg/kg): attenuates Compound PC-1's ability to release hydromorphone in a dose-dependent manner | effect of SBTI on release of hydromorphone from Compound PC-2 ([4]; rat PO, PC-2 20 mg/kg with SBTI 500 mg/kg): attenuates Compound PC-2's ability to release hydromorphone, both with respect to suppressing Cmax and delaying Tmax | effect of SBTI on release of hydromorphone from Compound PC-3 ([13]; rat PO, PC-3 20 mg/kg with SBTI 500 mg/kg): attenuates Compound PC-3's ability to release hydromorphone, both with respect to suppressing Cmax and delaying Tmax | effect of SBTI on release of hydromorphone from Compound PC-4 ([5]; rat PO, PC-4 20 mg/kg with SBTI 500 mg/kg): attenuates Compound PC-4's ability to release hydromorphone, at least with respect to delaying Tmax | IC50 (trypsin; Table 7): 270 nM | IC50 (trypsin; Table 20): 270 nM

B2: ovalbumin: Albumin from chicken egg white (Catalog No. A7641, Sigma-Aldrich), used as a non-trypsin inhibitor protein control (protein, UniProt P01012 2-386, looked up)
Ovalbumin: GSIGAASMEFCFDVFKELKVHHANENIFYCPIAIMSALAMVYLGAKDSTRTQINKVVRFDKLPGFGDSIEAQCGTSVNVHSSLRDILNQITKPNDVYSFSLASRLYAEERYPILPEYLQCVKELYRGGLEPINFQTAADQARELINSWVESQTNGIIRNVLQPSSVDSQTAMVLVNAIVFKGLWEKAFKDEDTQAMPFRVTEQESKPVQMMYQIGLFRVASMASEKMKILELPFASGTMSMLVLLPDEVSGLEQLESIINFEKLTEWTSSNVMEERKIKVYLPRMKMEEKYNLTSVLMAMGITDVFSSSANLSGISSAESLKISQAVHAAHAEINEAGREVVGSAEAGVDAASVSEEFRADHPFLFCIKHIATNAVLFFGRCVSP
effect of ovalbumin on release of hydromorphone from Compound PC-1 ([2]; rat PO, PC-1 20 mg/kg with OVA 20 to 1000 mg/kg): does not significantly affect Compound PC-1's ability to release hydromorphone
